Data on 11 molecules can be found in US7105310B1, “Detection of biomolecules by sensitizer-linked substrates” (California Institute of Technology, priority 2000, dated 2006).

Where “and” joins values, the source holds several entries; their conditions need not be identical. Equal entries are not always repeated.

For data set [1], the target named is T1, cytochrome P450cam (Pseudomonas putida, UniProt P00183). To be noted: cited from earlier work.
The target of data set [2] is T1, cytochrome P450cam. To be noted: for rate of hydroxylation (NADH consumption): NADH/PdR/Pd/P450, 1 μM P450, 20 °C. How it is done: Two cycles of acetonitrile (5 mL) addition, decanting, and rotary evaporation were performed to separate the buffer salts from the ruthenated species. The ruthenium concentration was quantified by UV-vis (ε456=14,500 M^−1 cm^−1).
Each solution was injected three different times, with intermediary blank runs of pure acetonitrile. Relative peak intensities were determined using analysis software, which deconvolved the spectra to assign one singly charged peak to each compound. […] This information was crucial in quantifying hydroxylated product yields relative to starting material in the analysis of subsequent turnover experiments.
The oxygen electrode was calibrated at 20° C. (linear response with [O2], 0–100% O2), and connected to a LeCroy oscilloscope interfaced to a PC using freely available LeCroy software (LeCroy, Chestnut Ridge, N.Y.). The O2 electrode (3 mm diameter with Teflon casing) was pushed through a septum, which formed an airtight seal with the mouth of a standard 1 cm pathlength cuvette. […] All UV-vis experiments were conducted with stirred samples at 20° C. […] Experiments were initiated upon addition of 200 μM NADH, and absorbance at 340 nm was measured simultaneously with O2 consumption.
The consumption of NADH was monitored at 340 nm by UV-vis spectroscopy and O2 consumption monitored with the microelectrode. Once all of the NADH was consumed, a known amount of 3-endo-bromo-camphor was added, and the mixture was extract three times with an equal volume of methylene chloride. The organic extract was concentrated by evaporation and analyzed by GC.

For data set [3], the target named is T2, cytochrome P450cam (Pseudomonas putida, UniProt P00183, C335A). The data set is described as follows: biochemical. How it is done: A Hewlett Packard 8452A spectrophotometer was used to collect UV-vis data. Buffer conditions were 50 mM potassium phosphate, 100 mM potassium chloride, pH 7.4 for all protein solutions (˜5 μM P450). […] Thus, affinities were determined by the ability of these complexes to inhibit the low- to high-spin transition produced by camphor. […] The concentration of ethanol never exceeded 1% of the total volume. […] Absorbance changes were recorded at 392 and 416 nm. […] By definition, KD=Kcam/KI, where Kcam is the dissociaton constant of camphor (in the absence of Ru-substrate), and KI is the equilibrium constant between camphor- and ruthenium-bound P450, spectroscopically determined by measuring the dissociation constant of camphor at multiple Ru concentrations. Luminescence experiments measure KD directly.

Another data set deals with iNOS. The settings on record: cited from earlier work.
The next data set concerns eNOS. To be noted: cited from earlier work.
The subject of the next data set is nNOS. The settings on record: cited from earlier work.
For another data set, the system named is NOS. The settings on record: cited from earlier work.
The target in data set [4] is T2, cytochrome P450cam. The settings on record: untethered control complexes.
For data set [5], the target named is T3, P450 (Pseudomonas putida, UniProt P00183).
T3 construct: made in house; host or cells: E. coli
T3 sequence (P00183 1-415): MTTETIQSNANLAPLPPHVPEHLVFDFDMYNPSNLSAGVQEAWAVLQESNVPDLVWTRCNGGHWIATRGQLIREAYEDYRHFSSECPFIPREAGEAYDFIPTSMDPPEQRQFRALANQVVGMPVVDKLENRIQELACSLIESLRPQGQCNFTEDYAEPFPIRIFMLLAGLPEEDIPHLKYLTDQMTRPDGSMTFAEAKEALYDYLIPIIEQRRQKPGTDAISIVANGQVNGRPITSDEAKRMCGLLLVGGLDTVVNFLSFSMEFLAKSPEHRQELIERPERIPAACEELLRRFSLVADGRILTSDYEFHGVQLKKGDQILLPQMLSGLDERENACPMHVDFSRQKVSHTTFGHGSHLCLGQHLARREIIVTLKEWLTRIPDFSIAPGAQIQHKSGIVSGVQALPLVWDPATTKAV
To be noted: cited from earlier work.

A further data set has as its target T4, P450:Ru complex (Pseudomonas putida, UniProt P00183).
T4 construct: made in house
T4 sequence (P00183 2-415 limits assumed): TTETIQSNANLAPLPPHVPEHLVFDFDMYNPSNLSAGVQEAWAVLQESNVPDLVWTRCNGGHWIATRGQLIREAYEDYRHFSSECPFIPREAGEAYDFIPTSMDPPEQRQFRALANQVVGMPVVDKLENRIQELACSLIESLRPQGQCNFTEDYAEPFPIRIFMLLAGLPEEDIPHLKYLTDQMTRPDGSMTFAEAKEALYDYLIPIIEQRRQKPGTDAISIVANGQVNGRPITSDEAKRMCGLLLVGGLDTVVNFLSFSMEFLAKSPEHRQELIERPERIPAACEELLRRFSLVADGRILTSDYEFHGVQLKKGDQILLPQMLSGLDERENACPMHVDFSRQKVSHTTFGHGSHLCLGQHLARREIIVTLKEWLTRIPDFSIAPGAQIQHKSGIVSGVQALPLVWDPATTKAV
Put plainly: Camphor titration into stoichiometric P450:Ru—C10 (UV-vis). In kind it is binding.

Another data set addresses Asp251Asn (Pseudomonas putida, UniProt P00183, D252N). The settings on record: decreases above 15° C.; cited from earlier work.
In data set [6] the target is T3, P450. Put plainly: Steady-state luminescence of Ru-dppa probes in acetonitrile, buffer and buffer with P450. To be noted: for integrated luminescence intensity with P450 as % of value in acetonitrile: buffer in the presence of P450. How it is done:
(§1) Electrospray mass spec. data was collected on a Finnigan LCQ quadrupole ion trap mass spectrometer.
(§2) P450 was stored in small aliquots and thawed immediately before use. Samples were prepared in 50 mM Kphos buffer containing 100 mM KCl. P450 concentration was quantified using the heme soret absorption at 416.5 nm (115,000 M^−1 cm^−1). Samples were prepared in a custom quartz cuvette fitted with a Kontes Teflon stopcock. Oxygen was removed from the sample by completing at least 30 cycles of partial vacuum followed by an influx of argon.
The luminescence of compounds 1–3 was examined in acetonitrile, potassium phosphate buffer, and buffer in the presence of P450 (as described above). […] The complexes 2 and 3 show modest recoveries of luminescence, with integrated intensities that are 2.6 and 5.2% of their values in acetonitrile (FIG. 49). The luminescence from 3 is approximately 20 fold greater in the presence of P450 than in buffer alone.

The target of another data set is T5, P450cam (Pseudomonas putida, UniProt P00183).
T5 construct: made in house; host or cells: E. coli
T5 sequence (P00183 1-415): T3 sequence (P00183 1-415)
The data set is described as follows: Binding of [Ru(phen)2dppa]-adamantyl probes to P450. To be noted: Example VI. Here is the method: as §1, §2

For data set [7], the system named is six heme proteins (yeast cytochrome c, horse skeletal muscle myoglobin, bovine lipase cytochrome b5, bovine liver catalase, recombinant yeast cytochrome c …). Put plainly: Emission decay of Ru-substrate in presence of other heme proteins. To be noted: […] Ru—C9-Ad, 50 mM sodium phosphate pH 7; monophasic = no binding.

Consider `NC(=O)CC12CC3CC(CC(C3)C1)C2` [1-adamantylacetamide], for which the “rate of hydroxylation, literature value” at cytochrome P450cam [1] (literature) was roughly 110 μmol NADH/min/μmol P450.
As to `NC(=O)CC1C2CC3CC(C2)CC1C3` (stereo not shown) [2-adamantylacetamide], on cytochrome P450cam [2], the “yield of hydroxylated product based on NADH (product formation/NADH consumption)” value was found to be 47±3% and the “rate of hydroxylation (NADH consumption)” value came out at 90±20 μmol NADH/min/μmol P450. Besides, the “spin conversion at the heme” value at cytochrome P450cam [3] was “full low to high spin conversion”. On cytochrome P450cam [3] (ferric-aquo P450), the “conversion of heme to high-spin species on binding” value is 95%.
Consider `CC(=N)NCc1cccc(CN)c1` [1400W], for which the “type of inhibition” value in the data set on iNOS was “irreversible inhibitor”; with eNOS it was “weak, reversible inhibitor”; with nNOS, “weak, reversible inhibitor”.
For the molecule `N=C(NCCC[C@H](N)C(=O)O)N[N+](=O)[O-]` [NMA, N^ω-nitro-arginine], the “inhibition of NOS” value in the data set with NOS was “good, but non-specific inhibitor”.
On to `[Cl-].[Cl-].[Ru+2].c1ccc(-c2ccccn2)nc1.c1ccc(-c2ccccn2)nc1.c1ccc(-c2ccccn2)nc1` [[Ru(bpy)3]^2+, Tris(2,2′-bipyridine)ruthenium(II) chloride], for which the “quenching upon addition of P450” value on cytochrome P450cam [4] is listed as “not quenched”.
As to `CC12CCC(CC1=O)C2(C)C` (stereo not shown) [camphor], the “rate of hydroxylation (NADH consumption)” value on cytochrome P450cam [2] was roughly 600 μmol NADH/min/μmol P450. The Kd was ~1 µM and 1.6 µM at P450 [5] (comparison value, read-out: KD of camphor (natural substrate)); 3 µM and 3.1 µM at cytochrome P450cam [3] (dissociation constant of camphor (KS, Kcam), P450 alone, no Ru-substrate, 50 mM potassium phosphate, 100 mM KCl, pH 7.4, 20 °C); 3.6 ± 0.2 µM at P450:Ru complex. Moreover, at P450 [5] (decreases below 15° C.), the “association constant for camphor (In Keq), WT P450” value is listed as roughly 14.2. On cytochrome P450cam [1], the “coupling of hydroxylation reaction” value is roughly 100%. On Asp251Asn, the “association constant for camphor (In Keq), Asp251Asn” value is on record as roughly 14.2.
D-Phe-D-ArgNO2—OMe: at iNOS, the Kd is 3600 µM. Moreover, the “dissociation constant” value on eNOS and on nNOS was “micromolar” in each case.
Turning to Ru(phen)2dppa-C6-Ad [compound 1], the “luminescence increase over background” value at P450 [6] is given as “did not show a significant increase in luminescence”. The molecule further gave a Kd at P450cam of 0.25 µM.
In the case of Ru(phen)2dppa-adm [compound 3], the “quantum yield bound to P450” value at P450 [6] (based on reported quantum yield of [Ru(phen)2dppz]2+ in aerated acetonitrile) amounted to 0.00038. Besides, at P450 [6], the “integrated luminescence intensity with P450 as % of value in acetonitrile” value was 5.2%. The molecule further showed a Kd on P450cam of 0.18 µM.
Take Ru(phen)2dppa-gly-adm [compound 2]: the “integrated luminescence intensity with P450 as % of value in acetonitrile” value on P450 [6] came to 2.6%. This molecule also had a Kd at P450cam of 2.4 µM.
Turning to [Ru(bpy)2(bpy-C9-Ad)]Cl2 [Ru—C9-Ad], in [7], the “emission decay profile in presence of six heme proteins” value is reported as “monophasic”. At cytochrome P450cam [2], the “effective product yield based on background oxidase activity” value is listed as 40%; the “yield of hydroxylated product based on NADH (product formation/NADH consumption)” value amounted to 10%; the “rate of hydroxylation (NADH consumption)” value was 10±2 μmol NADH/min/μmol P450 and 8 μmol NADH/min/μmol P450.

What is called Kd is the free concentration of one partner at which half of the binding sites on the other are occupied at equilibrium, for simple one-to-one binding.
